How the values were obtained:
[1] = In vitro anti-HIV activity in human peripheral blood mononuclear (PBM) cells acutely infected with HIV-1 LAI; format: functional
[2] = In vitro cytotoxicity assessed by measuring [3H]-thymidine uptake in human peripheral blood mononuclear (PBM) cells; format: functional

Row | Compound | EC50 [1] [µM] | IC50 [2] [µM]
1 | C[C@@H]1CC[C@H]2[C@@H](C)C(=O)O[C@@H]3O[C@@]4(C)CC[C@@H]1[C@]32OO4 [ARTEMISININ] | > 100 | > 100
2 | Cc1cn([C@H]2C[C@H](N=[N+]=[N-])[C@@H](CO)O2)c(=O)[nH]c1=O [ZIDOVUDINE] | 0.004 | > 100
3 | COC(=O)c1ccc([C@H]2OOC3(CCC[C@@H](C)C3)[C@@H](OC)O2)cc1 (some centres undefined) | > 100 | > 100
4 | CCO[C@H]1O[C@@H]2O[C@@]3(C)CC[C@H]4[C@H](C)CC[C@@H]([C@H]1C)[C@@]24OO3 [ARTEMOTIL] | 41.2 | 30.9
5 | C[C@@H]1CC[C@H]2[C@@H](C)CCO[C@@H]3O[C@]4(C)CC[C@@H]1[C@]32OO4 | 50.2 | > 100
6 | CCCC[C@H]1O[C@@H]2O[C@]3(C)CC[C@H]4[C@H](C)CC[C@@H]([C@H]1C)[C@@]24OO3 | 4.7 | 1.3
7 | C[C@@H]1CC[C@H]2[C@@H](C)CO[C@@H]3O[C@]4(C)CC[C@@H]1[C@]32OO4 [DEOXOARTEMISININ] | > 100 | > 100

From ChEMBL document CHEMBL1159193, “Synthesis and in vitro anti-human immunodeficiency virus activity of artemisinin (qinghaosu)-related trioxanes” (Bioorg Med Chem Lett, 1994)
